These results are taken from US20250171463A1 (BIOGEN MA INC., priority 2022, published 2025).

One may read the IC50 as the concentration needed to halve the response being measured. Read a low IC50 as greater potency in that assay.

Each structure is given as a SMILES string. Some results are limits rather than exact numbers.

In this test the target is T1, EBP (Homo sapiens, UniProt Q15125).
T1 construct: HEK293T cells were utilized as the source of EBP enzyme; endogenous in cells; host or cells: HEK293T
T1 sequence (Q15125 whole entry): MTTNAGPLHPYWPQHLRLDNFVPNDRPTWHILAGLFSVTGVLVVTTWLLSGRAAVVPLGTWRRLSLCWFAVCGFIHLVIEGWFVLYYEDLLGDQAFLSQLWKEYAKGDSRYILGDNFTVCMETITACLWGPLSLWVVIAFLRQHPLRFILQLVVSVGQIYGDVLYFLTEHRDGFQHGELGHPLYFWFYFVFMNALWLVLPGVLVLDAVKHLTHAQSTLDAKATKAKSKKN
The experiment in a line: EBP Functional Assay (EBP immunoaffinity LC-MS assay). In kind it is biochemical. As to conditions: EBP enzyme from HEK293T cells; 30 min with inhibitor, then zymosterol-d5, 37° C., 4 h; percent conversion to dehydrolathosterol-d5 by LC-APCI MRM MS. How it is done:
The EBP immunoaffinity (IA) LC-MS assay measures the potency of small molecule inhibitors of EBP by quantifying their concentration-dependent changes in the enzyme's substrate and product using liquid chromatography atmospheric pressure chemical ionization multiple reaction monitoring mass spectrometry (LC-APCI MRM MS). HEK293T cells were utilized as the source of EBP enzyme. The enzyme was incubated with the small molecule inhibitors at variable concentrations for 30 min. Deuterated form of EBP substrate, zymosterol-d5 (Avanti Polar Lipids, Cat #700068P-1 mg), was then added and the plate was incubated at 37° C. for 4 h. Finally, the sterol isomers were extracted and injected to LC-APCI MRM MS. MRM transition used for the quantification for both zymosterol and […] (substrate and product of EBP enzymatic reaction, respectively) is 372.3-203.2, CE 30 and DP 80 in positive ion mode. Percent conversion of the zymosterol-d5 to dehydrolathosterol-d5 was used to derive IC50 curves. Tasin-1 (1′-[(4-Methoxyphenyl)sulfonyl]-4-methyl-1,4′-bipiperidine, CAS 792927-06-1) was used as the reference small molecule inhibitor.
Percent conversion versus the compound concentration data were fit to the following 4-parameter logistic model to generate IC50 curves: […]

Consider `Cn1nc(C(F)(F)F)cc1S(=O)(=O)N1CCC2(CCN(C3CCOCC3)C2)CC1` [Example 40], for which the IC50 is less than 100 nM. With `Cc1cc(OC(F)(F)F)ccc1S(=O)(=O)N1CCC2(CCN(C3CCOCC3)C2)CC1` [Example 41], the concentration for half-maximal inhibition (IC50) was less than 100 nM. As for `Cc1nc(C(F)(F)F)ccc1S(=O)(=O)N1CCC2(CCN(C3CCOCC3)C2)CC1` [Example 42], the figure is less than 100 nM; as for `COc1ccc(S(=O)(=O)N2CCC3(CCN(C4CCOCC4)C3)CC2)c(C)n1` [Example 43], less than 100 nM. The compound `Cc1ccc(S(=O)(=O)N2CC3(CN(C4CCOCC4)C3)C2)c(C)c1` [Example 44, 2-((2,4-Dimethylphenyl)sulfonyl)-6-(tetrahydro-2H-pyran-4-yl)-2,6-diazaspiro[3.3]heptane] came in with an IC50 of less than 100 nM. On to `Cc1ccc(S(=O)(=O)N2CC3(CN(CC4(O)CCOCC4)C3)C2)c(C)c1` [Example 45, 4-((6-((2,4-Dimethylphenyl)sulfonyl)-2,6-diazaspiro[3.3]heptan-2-yl)methyl)tetrahydro-2H-pyran-4-ol], for which the 50% inhibitory concentration (IC50) fell in the range of 100 to 250 nM. As to `Cn1nc(C(F)(F)F)cc1S(=O)(=O)N1CC2(CN(C3CCOCC3)C2)C1` [Example 46, 2-((1-Methyl-3-(trifluoromethyl)-1H-pyrazol-5-yl)sulfonyl)-6-(tetrahydro-2H-pyran-4-yl)-2,6-diazaspiro[3.3]heptane], the IC50 fell in the range of 100 to 250 nM. As to `COc1ccc(S(=O)(=O)N2CC3(CN(C4CCOCC4)C3)C2)c(C)n1` [Example 47], the concentration for half-maximal inhibition (IC50) was 100 to 250 nM. As for `Cc1cc(C(F)(F)F)ncc1S(=O)(=O)N1CC2(CN(C3CCOCC3)C2)C1` [Example 48], the figure is 100 to 250 nM; as for `Cc1nn(C)c(S(=O)(=O)N2CC3(CN(C4CCOCC4)C3)C2)c1C(F)F` [Example 49], 100 to 250 nM; as for `Cc1cc(OC(F)(F)F)ccc1S(=O)(=O)N1CC2(CN(C3CCOCC3)C2)C1` [Example 50], less than 100 nM. In turn, `Cc1nc(C(F)(F)F)ccc1S(=O)(=O)N1CC2(CN(C3CCOCC3)C2)C1` [Example 51, 2-((2-Methyl-6-(trifluoromethyl)pyridin-3-yl)sulfonyl)-6-(tetrahydro-2H-pyran-4-yl)-2,6-diazaspiro[3.3]heptane] registered an IC50 of less than 100 nM. As for `Cc1ccc(S(=O)(=O)N2CC3(CCN(C4CCOCC4)C3)C2)c(C)c1` [Example 52, 2-((2,4-Dimethylphenyl)sulfonyl)-6-(tetrahydro-2H-pyran-4-yl)-2,6-diazaspiro[3.4]octane], the figure is less than 100 nM; as for `Cc1cc(C)c(S(=O)(=O)N2CC3(CCN(C4CCOCC4)C3)C2)cn1` [Example 53], less than 100 nM. On to `O=S(=O)(c1ccc(OC(F)F)cc1)N1CC2(CCN(C3CCOCC3)C2)C1` [Example 54], for which the half-inhibitory concentration (IC50) lay in the range of 100 to 250 nM. `Cn1nc(C(F)(F)F)cc1S(=O)(=O)N1CC2(CCN(C3CCOCC3)C2)C1` [Example 55] yielded an IC50 of less than 100 nM.

Compound `Cc1nc(C(F)(F)F)ccc1S(=O)(=O)N1CC2(CCN(C3CCOCC3)C2)C1` [Example 56] yielded an IC50 of less than 100 nM.

`Cc1cc(C(F)(F)F)ncc1S(=O)(=O)N1CC2(CCN(C3CCOCC3)C2)C1` [Example 57]: the 50% inhibitory concentration (IC50) lay within 100 to 250 nM. Compound `Cc1cc(OC(F)(F)F)ccc1S(=O)(=O)N1CC2(CCN(C3CCOCC3)C2)C1` [Example 58] came in with a half-maximal inhibitory concentration (IC50) of less than 100 nM.

In turn, `Cn1nc(C2CC2)cc1S(=O)(=O)N1CC2(CCN(C3CCOCC3)C2)C1` [Example 59] returned an IC50 of 100 to 250 nM. As for `Cn1nc(C(F)(F)F)cc1S(=O)(=O)N1CCC2(CN(C3CCOCC3)C2)C1` [Example 60, 6-((1-methyl-3-(Trifluoromethyl)-1H-pyrazol-5-yl)sulfonyl)-2-(tetrahydro-2H-pyran-4-yl)-2,6-diazaspiro[3.4]octane], the figure is less than 100 nM; as for `O=S(=O)(c1ccc(OC(F)F)cc1)N1[C@@H]2CC[C@H]1CC1(C2)CN(C2CCOCC2)C1` [Example 61, (1′R,5′S)-8′-((4-(Difluoromethoxy)phenyl)sulfonyl)-1-(tetrahydro-2H-pyran-4-yl)-8′-azaspiro[azetidine-3,3′-bicyclo[3.2.1]octane]], 100 to 250 nM.
